{"source": "patent US20240209016A1", "about": "“FLUORESCENT NUCLEOSIDE PHOSPHATES” (STEALTH LABELS BIOTECH AB, priority 2021, published 2024)", "test_system": "Huh-7 cells", "assay": "alamarBlue cell viability (metabolic activity) assay", "assay_type": "cell-based", "conditions": "analogous experiments, FIG. 10", "description": "The Huh-7 human liver cell line was used.\nAfter 24 h exposure with compounds 7 or 17, the conditioned medium was removed from the cells and used for the LDH leakage assay (see below). Freshly prepared alamarBlue cell viability reagent (Invitrogen, diluted 1:10 in CCM) was added, followed by incubation for 3 h at 37° C. and 5% CO2. The resulting resorufin fluorescence was read using an Optima Fluostar plate reader (BMG Labtech) Ex: 544 nm/Em: 590 nm. Dimethyl sulfoxide 5% and CCM alone (i.e. compounds 7 and 17 0 μM) were used as positive and negative controls for cell death, respectively.", "data": [{"smiles": "N#Cc1ccc2c(c1)Nc1ncnc3c1c-2cn3[C@@H]1O[C@H](COP(=O)(O)O)[C@@H](O)[C@H]1O", "note": "[7a, ((2R,3S,4R,5R)-5-(8-cyano-2,3,5,6-tetraazaaceanthrylen-2(6H)-yl)-3,4-dihydroxytetrahydrofuran-2-yl)methyl dihydrogen phosphate]", "values": [{"measurement": "toxicity (cytotoxicity assessment, monophosphate)", "result": "non-toxic"}]}]}
